Experiment [1] has as its system Erythrocyte. The experiment can be described thus: Anticomplement activity in sheep erythrocytes assessed as concentration required for 50% hemolytic inhibition by classic pathway pretreated for 10 mins with guinea pig serum followed by erythrocyte addition measured after 30 mins by spectrophotometeric method. The format is functional, cell-based. Particulars: Ovis aries.

In experiment [2] the test system is Erythrocyte. Briefly: Anticomplement activity in rabbit erythrocytes assessed as concentration required for 50% hemolytic inhibition by alternative pathway pretreated for 10 mins with normal human serum followed by erythrocyte addition measured after 30 mins by spectrophotometeric method. The format is functional, cell-based. As to conditions: Oryctolagus cuniculus.

For experiment [3], the system named is Erythrocyte. The experiment can be described thus: Anticomplement activity in sheep erythrocytes assessed as inhibition of complete hemolysis by classical pathway after 30 mins of compound treatment in normal human serum. Type of experiment: functional. Particulars: Ovis aries, 0.5 h.
Experiment [4] has as its system Erythrocyte. The experiment can be described thus: Anticomplement activity in sheep erythrocytes assessed as inhibition of hemolysis by classical pathway after 30 mins of compound treatment in normal human serum with C2-depleted sera. Type of experiment: functional, cell-based. As to conditions: Ovis aries.
Experiment [5] has as its system Erythrocyte. Briefly: Anticomplement activity in sheep erythrocytes assessed as inhibition of hemolysis by classical pathway after 30 mins of compound treatment in normal human serum with C1q-depleted sera. The format is functional, cell-based. Particulars: Ovis aries.
Experiment [6] relates to Erythrocyte. The experiment can be described thus: Anticomplement activity in sheep erythrocytes assessed as inhibition of hemolysis by classical pathway after 30 mins of compound treatment in normal human serum with C3-depleted sera. As to conditions: Ovis aries. Type of experiment: functional, cell-based.
Experiment [7] deals with Erythrocyte. Briefly: Anticomplement activity in sheep erythrocytes assessed as inhibition of hemolysis by classical pathway after 30 mins of compound treatment in normal human serum with C4-depleted sera. Type of experiment: functional, cell-based. Particulars: Ovis aries.
Experiment [8] deals with Erythrocyte. The experiment can be described thus: Anticomplement activity in sheep erythrocytes assessed as inhibition of hemolysis by classical pathway after 30 mins of compound treatment in normal human serum with C5-depleted sera. The format is functional, cell-based. As to conditions: Ovis aries.
For experiment [9], the system named is Erythrocyte. The experiment can be described thus: Anticomplement activity in sheep erythrocytes assessed as inhibition of hemolysis by classical pathway after 30 mins of compound treatment in normal human serum with C9-depleted sera. Type of experiment: functional, cell-based. As to conditions: Ovis aries.
For experiment [10], the system named is Erythrocyte. Briefly: Anticomplement activity in sheep erythrocytes assessed as inhibition of hemolysis by classical pathway by measuring hemolysis after 30 mins of compound treatment in normal human serum with C3-depleted sera relative to control. Type of experiment: functional, Ovis aries.
Experiment [11] deals with Erythrocyte. Briefly: Anticomplement activity in sheep erythrocytes assessed as inhibition of hemolysis by classical pathway by measuring hemolysis after 30 mins of compound treatment in normal human serum with C4-depleted sera relative to control. Type of experiment: functional, Ovis aries.
Experiment [12] relates to Erythrocyte. Briefly: Anticomplement activity in sheep erythrocytes assessed as inhibition of hemolysis by classical pathway by measuring hemolysis after 30 mins of compound treatment in normal human serum with C5-depleted sera relative to control. Type of experiment: functional, Ovis aries.
The subject of experiment [13] is Erythrocyte. The experiment can be described thus: Anticomplement activity in sheep erythrocytes assessed as inhibition of hemolysis by classical pathway by measuring hemolysis after 30 mins of compound treatment in normal human serum with C9-depleted sera relative to control. Type of experiment: functional, Ovis aries.

Each structure is given as a SMILES string. ≈ marks a conversion by molar mass, not a printed value. Calls of active or inactive are those of the source.

As usually defined, the IC50 is the concentration that inhibits the measured activity by half. The MIC is the smallest concentration in the dilution series that meets the test's criterion for growth inhibition.

For `CCOC(=O)[C@H]1OC(=O)c2cc(O)c(O)c(O)c2[C@@H]1[C@H](CC(=O)O)C(=O)O`, the figures for the IC50 with Erythrocyte [1] and in the experiment on Erythrocyte [2] were 460 µM and 550 µM, respectively. In the experiment on Erythrocyte [3], the MIC stood at 840 µM (≈ 323 µg/mL). Besides, the inhibition entry in the experiment with Erythrocyte [4], in the experiment on Erythrocyte [5] and in the experiment with Erythrocyte [9] was “inactive” in each case. For the same molecule, the inhibition entry in the experiment with Erythrocyte [6], with Erythrocyte [7] and in the experiment with Erythrocyte [8] was “Active” each time.

As to `COC(=O)c1cc(O)c(O)c(O)c1` [GALLIC ACID METHYL ESTER], the values for the IC50 in the experiment with Erythrocyte [1] and in the experiment on Erythrocyte [2] were 840 µM and 1070 µM, respectively.

Take `COc1cc([C@@H]2OC(=O)[C@@H]3[C@H]2CO[C@H]3c2ccc(O)c(OC)c2)ccc1O`: the IC50 is 880 µM with Erythrocyte [1] and 1160 µM in the experiment on Erythrocyte [2].

With `CCOC(=O)[C@@H](CC(=O)OC)[C@H]1c2c(cc(O)c(O)c2O)C(=O)O[C@@H]1C(=O)OCC`, the IC50 in the experiment on Erythrocyte [1] is 1250 µM; in the experiment on Erythrocyte [2], 1530 µM.

Regarding `CCOC(=O)[C@H]1OC(=O)c2cc(O)c(O)c(O)c2[C@@H]1CC(=O)OC`, the IC50 in the experiment on Erythrocyte [1] amounted to 1450 µM; with Erythrocyte [2], 1840 µM.

On to `COc1cc([C@H]2c3cc(O)c(OC)cc3/C(=C/C(=O)NCCc3ccc(O)cc3)[C@H]2C(=O)NCCc2ccc(O)cc2)ccc1O`, for which the results for the IC50 in the experiment with Erythrocyte [1] and in the experiment on Erythrocyte [2] were 390 µM and 420 µM, respectively. In addition, the MIC in the experiment with Erythrocyte [3] is 820 µM (≈ 512 µg/mL). For the same molecule, the inhibition entry in the experiment with Erythrocyte [6] and with Erythrocyte [7] was “Active” each time.

Consider `CC(=O)N[C@H]1[C@@H](O[C@H]2[C@H](O)[C@@H](O)[C@H](O[C@H]3[C@H](OS(=O)(=O)O)[C@@H](OS(=O)(=O)O)[C@@H](O[C@H]4[C@H](O)[C@@H](OS(=O)(=O)O)C(O)O[C@H]4C(=O)O)O[C@@H]3CO)O[C@@H]2C(=O)O)O[C@H](COS(=O)(=O)O)[C@@H](O)[C@@H]1O` (some centres not stated), for which the IC50 with Erythrocyte [1] stood at 93 µg/mL; in the experiment with Erythrocyte [2], 135 µg/mL.

In the case of `COc1cc([C@@H](O)[C@@H]2C(=O)NCCc3ccc(cc3)Oc3ccc(cc3)CCNC(=O)/C=C/c3cc(OC)c(O)c2c3)ccc1O`, the IC50 is 520 µM with Erythrocyte [1] and 720 µM in the experiment on Erythrocyte [2].

For `COc1c(O)cc2c(=O)oc3c(O)c(O)cc4c(=O)oc1c2c34`, the IC50 with Erythrocyte [1] came to 580 µM; with Erythrocyte [2], 670 µM.

On to `COC(=O)C1CC(=O)c2oc(=O)c3cc(O)c(O)c(O)c3c21` (configuration not stated) [METHYLBREVIFOLIN CARBOXYLATE], for which the IC50 was 1040 µM with Erythrocyte [1] and 1260 µM in the experiment on Erythrocyte [2].

As for `O=C(O)/C=C/c1ccc(O)c(O)c1` [CAFFEIC ACID], the IC50 in the experiment on Erythrocyte [1] was 750 µM; in the experiment on Erythrocyte [2] it was 940 µM.

Take `COc1cc(/C=C/C(=O)NCCc2ccc(O)cc2)ccc1O` [N-TRANS-FERULOYL TYRAMINE]: the IC50 in the experiment on Erythrocyte [1] is 880 µM; with Erythrocyte [2], 1330 µM.

For the molecule `CCOC(=O)C1CC(=O)c2oc(=O)c3cc(O)c(O)c(O)c3c21` (configuration not stated) [ETHYLBREVIFOLIN CARBOXYLATE], the IC50 with Erythrocyte [1] was determined as 1080 µM; with Erythrocyte [2], 1360 µM.

Turning to `COc1cc(/C=C(/C(=O)NCCc2ccc(O)cc2)c2cc(OC)c(O)c(OC)c2)ccc1O`, the results for the IC50 in the experiment on Erythrocyte [1] and in the experiment on Erythrocyte [2] were 1340 µM and 2800 µM, respectively.

`CCOC(=O)c1cc(O)c(O)c(O)c1` [ETHYLGALLATE]: the results for the IC50 with Erythrocyte [1] and in the experiment on Erythrocyte [2] were 1000 µM and 1240 µM, respectively.

`CCOC(=O)[C@@H](CC(=O)O)[C@H]1c2c(cc(O)c(O)c2O)C(=O)O[C@@H]1C(=O)OCC`: the IC50 in the experiment on Erythrocyte [1] was 770 µM; with Erythrocyte [2] it was 870 µM.

Consider `COc1c(O)cc2c(=O)oc3c(OC)c(O[C@@H]4OC[C@@H](O)[C@H](O)[C@H]4O)cc4c(=O)oc1c2c34`, for which the IC50 with Erythrocyte [1] was found to be 230 µM; in the experiment with Erythrocyte [2], 290 µM.

For the molecule `COc1c(O)cc2c(=O)oc3c(O)c(O[C@@H]4O[C@@H](C)[C@H](O)[C@@H](O)[C@H]4O)cc4c(=O)oc1c2c34`, the results for the IC50 with Erythrocyte [1] and in the experiment with Erythrocyte [2] were 180 µM and 260 µM, respectively. Besides, the MIC in the experiment with Erythrocyte [3] turned out to be 340 µM (≈ 157 µg/mL). Further, the inhibition result with Erythrocyte [5], in the experiment on Erythrocyte [6] and in the experiment on Erythrocyte [8] was “Active” in each case.

Regarding `O=C1C[C@@H](c2ccc(O)cc2)[C@]2(O)C(=O)O[C@@H]([C@H](O)CO)[C@H]2O1`, the IC50 in the experiment on Erythrocyte [1] is 730 µM; in the experiment with Erythrocyte [2], 990 µM. Moreover, the MIC in the experiment with Erythrocyte [3] came out at 1760 µM (≈ 571 µg/mL). In addition, the “inhibition (INH)” value in the experiment on Erythrocyte [10], in the experiment on Erythrocyte [11], with Erythrocyte [12] and in the experiment with Erythrocyte [13] was less than 10.6% throughout. Moreover, the inhibition result with Erythrocyte [4] and with Erythrocyte [5] was “inactive” in each case.

For `O=C(O)c1cc(O)c(O)c(O)c1` [GALLIC ACID], the IC50 was determined as 590 µM in the experiment on Erythrocyte [1] and 740 µM in the experiment on Erythrocyte [2].

With `COc1cc(/C=C/C(=O)OCCc2ccc(O)cc2)ccc1O`, the IC50 with Erythrocyte [1] was 660 µM; in the experiment on Erythrocyte [2], 1010 µM.

`Cc1ccc(C(=O)Nc2ccc(S(=O)(=O)O)c3cc(S(=O)(=O)O)cc(S(=O)(=O)O)c23)cc1NC(=O)c1cccc(NC(=O)Nc2cccc(C(=O)Nc3cc(C(=O)Nc4ccc(S(=O)(=O)O)c5cc(S(=O)(=O)O)cc(S(=O)(=O)O)c45)ccc3C)c2)c1` [SURAMIN]: the IC50 with Erythrocyte [1] turned out to be 120 µM; with Erythrocyte [2], 180 µM.

As to `COc1c(O)cc2c(=O)oc3c(OC)c(O)cc4c(=O)oc1c2c34`, the IC50 came to 870 µM in the experiment on Erythrocyte [1] and 1070 µM in the experiment on Erythrocyte [2].

With `COc1cc2c(=O)oc3c(O)c(OC)cc4c(=O)oc(c1O)c2c34`, the IC50 with Erythrocyte [1] came to 1100 µM; in the experiment with Erythrocyte [2], 1310 µM.

For the molecule `O=c1oc2c(O)c(O)cc3c(=O)oc4c(O)c(O)cc1c4c23` [ELLAGIC ACID], the IC50 with Erythrocyte [1] and with Erythrocyte [2] was 320 µM in each case.

`O=C(O)C[C@H](C(=O)O)[C@H]1c2c(cc(O)c(O)c2O)C(=O)O[C@@H]1C(=O)O`: the figures for the IC50 in the experiment with Erythrocyte [1] and in the experiment on Erythrocyte [2] were 620 µM and 730 µM, respectively.

Consider `CC1(C)OC[C@H]([C@@H]2OC(=O)[C@]3(O)[C@@H]2OC(=O)C[C@H]3c2ccc(O)cc2)O1`, for which the results for the IC50 in the experiment on Erythrocyte [1] and in the experiment on Erythrocyte [2] were 920 µM and 1170 µM, respectively.

For `O=C1CCc2c1oc(=O)c1cc(O)c(O)c(O)c21`, the IC50 in the experiment with Erythrocyte [1] was 1250 µM; in the experiment with Erythrocyte [2], 1560 µM.

Source of the values: ChEMBL document CHEMBL4118121, “Anticomplement compounds from Polygonum chinense” (Bioorg Med Chem Lett, 2018).
